According to a melting point compilation (Tetko et al.; mined from patent text by program, amines drawn as free bases though some values may be those of a salt):

| Structure (SMILES) | melting point [°C] |
| --- | --- |
| CC(C)[Si](C#Cc1c2cc3ccccc3cc2c(C#C[Si](C(C)C)(C(C)C)C(C)C)c2cc3ccccc3cc12)(C(C)C)C(C)C | 210 |
| NS(=O)(=O)c1ccccc1-c1cnoc1 | 165 to 167 |
| NCCOc1cc(Cl)cc(Cl)c1 | 86 to 89 |
| COc1ccc2c(c1Br)CCC1CN(C)CC21 (configuration not stated) | 144 to 146 |
| CC(C)(F)C1COCc2nc3c(N)nc4c(c3n21)CCCC4 (configuration not stated) | 196 to 197 |
| N#Cc1ccc(C(F)(F)C(F)(F)C(F)(F)c2ccc(C#N)c(C#N)c2)cc1C#N | 133 to 135 |
| Cc1cc([N+](=O)[O-])c2[nH]ccc(=O)c2c1 | 209 to 212 |
| Cc1cccc(C)c1N1CC(C)N(c2c(C)cccc2C)C1=NC(=O)C(F)(F)F (configuration not stated) | 232 to 235 |
| CCOC(=O)NC(=S)Nc1ccc(C(=O)OC(C)(C)C)cc1 | 119 to 120 |
| COC(=O)CC(=O)c1cc(F)c(F)c(F)c1F | 68 to 72 |
| CCC(=O)NCCC1CCc2cc(F)c(OC)cc21 (configuration not stated) | 76 to 78 |
| O=C(Oc1ccc2cc(CN3CCCC3)ccc2c1)N1CCC(c2ccc(Cl)cc2)CC1 | 121 to 123 |
| CN1CCN(C(=O)c2cccc3cc[nH]c23)CC1 | 176 to 178 |
| CN(C)CCn1cnc2cnc3ccccc3c21 | > 250 |
| CC(=O)NCC1CN(c2ccc(N3CCN(c4nccs4)CC3)c(F)c2)C(=O)O1 (configuration not stated) | 205 to 206 |
| O=c1[nH]c2cc(Cl)c(-n3cccc3)cc2cc1P(=O)(O)O | 195 to 200 |
| CCOc1nc2ccccc2n2cc(C(=O)O)nc12 | 220 to 222 |

| Structure (SMILES) | melting point [°C] |
| --- | --- |
| CCCC(=O)c1cc2c(=O)n(NS(C)(=O)=O)c(=O)[nH]c2cc1C(F)(F)F | 236 to 239 |
| CCNc1c(OC)cc(C(O)CS(C)(=O)=O)cc1OC (configuration not stated) | 121 to 122 |
| CC1CN(C)c2c(Cl)ccc3c(=O)c(C(=O)O)cn1c23 (configuration not stated) | 243 to 245 |
| COc1cc(C)cc(C2=NC(C)(C)CO2)c1N | 135 to 138 |
| CS(=O)(=O)c1ccc(-c2cnn(-c3ccc(C#N)cc3)c(=O)c2-c2ccc(F)cc2)cc1 | 273 to 278 |
| CC(C)N(C(=O)Cn1cncn1)c1ccccc1 | 125 |
| C[C@H]1OC(=O)N[C@@H]1C(=O)NCCO[N+](=O)[O-] | 81.5 to 82.5 |
| COC12CC(CNC(=S)NC(C)=O)CN(C)C1Cc1cn(C)c3cccc2c13 (configuration not stated) | 170 to 172 |
| CC(C#Cc1ccc(Cl)cc1)N(O)C(N)=O (configuration not stated) | 159 to 161 |
| ON=C1C[C@H]2CC=CC[C@H]2C1 | 100 to 103 |
| O=C(Nc1cccc([N+](=O)[O-])c1)C(Br)CCBr (racemic) | 75 to 76 |
| Nc1nc(N)nc(Cc2nc3ccccc3n2-c2ccccc2)n1 | 337 to 340 |
| Cc1cc(-c2ccc(Cl)cc2)cnc1N=CN(C)C | 99 |
| Cc1ccc(S(=O)(=O)NC(=O)C(C)(N)C(C)C)cc1 (configuration not stated) | 262 to 265 |
| COc1cccc(-c2nc3c4ccccc4ccn3n2)c1 | 159 to 160 |
| O=C1C=CC(O)(c2cc3ccccc3n2S(=O)(=O)c2ccccc2)C=C1 | 170 to 172 |

The next lines start with the values.

| melting point [°C] | Structure (SMILES) |
| --- | --- |
| 146 | O=[N+]([O-])c1ccc(C2OCc3ccc(CO)cc3CO2)cc1 (configuration not stated) |
| 126 | CCC1CC(=O)N(Cc2cccc(NS(C)(=O)=O)c2)N=C1c1ccc(OC)c(OC)c1 (configuration not stated) |
| 208 to 210 | COc1ccc2c(c1)C(N1C(=O)c3ccccc3C1=O)C(=O)N2c1ccc(F)cc1 (configuration not stated) |
| 165 to 167 | CN(C)C(=O)c1ccc(NS(C)(=O)=O)c(Oc2ccc(F)cc2F)c1 |
| 220 to 222 | CC(C)C1CCN(Cc2ccc(COc3cccc4c3C(=O)N(C3CCC(=O)NC3=O)C4=O)cc2)CC1 (configuration not stated) |
| 54 to 55 | CCC(=NOCc1ccc(Cl)cc1)c1cc(Cl)ccc1NS(=O)(=O)C(F)(F)F |
| 108 to 109 | CCCc1c(OCCCCCOc2ccc(CCC(=O)O)cc2CCC(=O)O)ccc2c1OCCC2=O |
| 131 to 133 | O=C(OCc1ccc(-c2ccc(N3C[C@H](Cn4ccnn4)OC3=O)cc2F)cn1)N1CCOCC1 |
| 100 to 102 | CCCCCCOc1ccc2[nH]c(SC(C)(C(=O)O)c3ccccc3)cc2c1 (configuration not stated) |
| 200 | O=C(c1ccc(F)cc1)C1CCN(CCCn2c(=S)[nH]c3ccccc3c2=O)CC1 |
| 145 to 150 | COc1cc(Nc2nc3cccc(-c4cccc(CN)c4)c3o2)cc(OC)c1OC |
| 146 to 147 | CC(C)Cn1c(=O)n(C)c(=O)c2c(CCCCC(=O)O)n(Cc3cccc4ccccc34)cc21 |
| 159 to 160 | Cc1nc(-c2cccc(Cl)c2)c(CCC(=O)O)o1 |
| 110 to 111 | COC(=O)C=Cc1ccc(OCCN(C)c2ccccn2)c(F)c1 |
| 83 to 86 | COc1ccc(C(=NOC(C)=O)c2ccccc2F)c(O)c1C |
| 136 to 139 | CCCCCCN(C)c1ccc(C=C2SC(=S)N(CCNC(=O)C(F)(F)F)C2=O)cc1 |
| 109 to 110 | CCOC(Cc1ccc(OCCN(C)c2nc3ccccc3o2)cc1)C(=O)O (configuration not stated) |
| 114 | COCCOc1ccc(CCCOC(=O)NS(=O)(=O)NCCOC(C)C)c(Oc2ncc(C(F)(F)F)cc2Cl)c1 |
| 160 to 161 | O=C(NC1CCCCC1)c1ccn2nc(-c3ccccc3)c(-c3cccc(Cl)c3)c2n1 |
| 124 to 126 | O=C(O)CC1CCCc2c1[nH]c1ccc(F)cc21 (configuration not stated) |

| melting point [°C] | Structure (SMILES) |
| --- | --- |
| 49 to 51 | CC(=O)OCC(C)(C)c1cc(OS(C)(=O)=O)ccc1OC(C)=O |
| 118 to 119 | CC(=O)c1ccc(CCC(=O)O)cc1 |
| 127 to 128 | CCc1cccc2c(/C=C(\C)C(=O)O)cc(OC)c(OCOC)c12 |
| 131 to 132 | COC(=O)c1ccc(OCCCN2CCC(C(O)(c3ccc(F)cc3)c3ccc(F)cc3)CC2)c(OC)c1 |
| 173 to 176 | O=C(NO)c1ccc2c(c1)CCN(C(=O)NCCc1c[nH]c3ccccc13)C2 |
| 175 to 177 | CCCOc1ncc(I)cc1-c1nc2c(CC)nn(CCN3CCOCC3)c2c(=O)[nH]1 |
| 265 to 266 | COc1ccc2c(ccc3nc(C(=O)O)cn32)c1 |
| 82.2 to 84.2 | CCCCOCCOc1ccc(-c2cnc(N3CCC(COC(C)=O)C3)c(/C=C(\C)C(=O)O)c2)cc1 (configuration not stated) |
| 90 to 95 | C=C(C)C(=O)[C@@H]1CCCC[C@H]1C(=O)OC(c1ccccc1)c1ccccc1 (relative stereo) |
| 131 to 132 | O=C(O)CCOc1ccc2c(c1)CCO2 |
| 84 to 88 | O=C(N[C@@H](CSc1ccccc1[N+](=O)[O-])C(=O)O)OCc1ccccc1 |
| 71 to 72 | CCOC(=O)Cc1nc(-c2ccccc2)c(-c2ccccc2)o1 |
| > 230 | Cc1sc2c(Br)c3ccccc3c(-c3ccc(OS(=O)(=O)c4scc(C(=O)O)c4O)c(C4CCCC4)c3)c2c1C |
| 217 to 218 | N#CN=C(Cc1ccc2c(c1)Nc1nccnc1S2)NCCCC(=O)O |
| 172 to 174 | COc1cc2c(c3c1OC(C)(C)C3)C(c1cccc(OCC(N)=O)c1)=NC(C)(C)C2 |
| 92 to 95 | c1ccc(-c2ccccc2OCCCCCCOc2ccccc2-c2ccccc2)cc1 |
| 94 to 95 | CC(C)(C)OC(=O)N[C@H](CC(=O)OCc1ccccc1)C(=O)N[C@H](CO)Cc1ccccc1 |
| 156 to 158 | CCOC(=O)c1csc(-c2ccc([N+](=O)[O-])cc2)n1 |
| 137 to 138 | O=C(CCC(=O)N1CCC[C@H]1C(=O)O)c1ccc(Cl)cc1 |
